Source: US9976141B2, “Compositions and methods for inhibiting gene expression of Hif2alpha” (Arrowhead Madison Inc., priority 2015, dated 2018)
Strand notation (5' to 3'): a small letter for the sugar, then the base; units joined by * are phosphorothioate-linked, units joined directly phosphodiester-linked; [ ] holds rarer units or linkages, { } end groups; capitals alone tell only the bases. d = 2'-deoxy (DNA); m = 2'-O-methyl; f = 2'-fluoro

System: human EPAS1 (Hif2α) cDNA in psiCHECK2 (Renilla luciferase/EPAS1 fusion mRNA) in Hep3B cells
Assay: Efficacy screen of Hif2α RNAi triggers in vitro, dual-luciferase reporter assay (1 nM and 0.1 nM)
Assay type: cell-based
Conditions: Hep3B cells co-transfected with EPAS1-psiCHECK2, Renilla luciferase normalized to firefly luciferase
Description: Candidate sequences were identified by in silico analysis and screened as chemically modified canonical siRNAs in vitro. For screening purposes, the human EPAS1 (Hif2α) cDNA sequence (accession #NM 001430) was synthesized and cloned (DNA 2.0, Menlo Park, Calif.) into a commercially-available reporter-based screening plasmid, psiCHECK2 (Promega, Madison, Wis.) which generated a Renilla luciferase/EPAS1 fusion mRNA. For RNAi trigger efficacy evaluation, Hep3B cells, a human hepatocellular carcinoma line, were plated at 10,000 cells per well in 96-well format. Each of the 187 EPAS1 RNAi triggers, in two subsets, was co-transfected at two concentrations, 1 nM and 0.1 nM, with 25 ng EPAS1-psiCHECK2 plasmid DNA per well and 0.2 μL LipoFectamine 2000 (Life Technologies) per well. Gene knockdown was determined by measuring Renilla luciferase levels normalized to the levels of constitutively-expressed firefly luciferase, also present on the psiCHECK-2 plasmid, using the Dual Luciferase Reporter Assay (Promega, Madison, Wis.) Table 5.

Substance | Relative Rluc-Hif2α (0.1 nM RNAi trigger) | Relative Rluc-Hif2α (1 nM RNAi trigger)
2270 (sense fUmGfAmAfUmUfCmUfAmCfCmAfUmGfCmGfCmUfAdT; antisense dTfAmGfCmGfCmAfUmGfGmUfAmGfAmAfUmUfCmAdT*dT; siRNA) [compound 2270] | 0.658 ± 0.149 | 0.613 ± 0.147
2375 (sense fCmGfGmAfUmGfGmUfCmUfUmUfCmAfCmAfCmGfAdT; antisense dTfCmGfUmGfUmGfAmAfAmGfAmCfCmAfUmCfCmGdT*dT; siRNA) [compound 2375] | 0.481 ± 0.062 | 0.305 ± 0.040
2322 (sense fGmGfAmCfAmAfGmCfCmAfCmUfGmAfGmCfGmCfAdT; antisense dTfGmCfGmCfUmCfAmGfUmGfGmCfUmUfGmUfCmCdT*dT; siRNA) [compound 2322] | 0.468 ± 0.012 | 0.306 ± 0.059
2401 (sense fUmAfCmCfUmGfUmCfAmAfCmGfUmAfAmCfGmAfAdT; antisense dTfUmCfGmUfUmAfCmGfUmUfGmAfCmAfGmGfUmAdT*dT; siRNA) [compound 2401] | 0.375 ± 0.062 | 0.174 ± 0.003
2386 (sense fUmUfCmAfAmUfAmCfCmAfAmUfUmAfCmAfUmGfAdT; antisense dTfCmAfUmGfUmAfAmUfUmGfGmUfAmUfUmGfAmAdT*dT; siRNA) [compound 2386] | 0.603 ± 0.032 | 0.274 ± 0.087
2342 (sense fCmAfAmCfUmCfCmAfAmCfGmUfAmUfGmUfGmGfAdT; antisense dTfCmCfAmCfAmUfAmCfGmUfUmGfGmAfGmUfUmGdT*dT; siRNA) [compound 2342] | 1.058 ± 0.064 | 0.549 ± 0.041
2280 (sense fUmAfCmCfGmGfAmUfGmCfUmCfGmCfAmAfAmGfAdT; antisense dTfCmUfUmUfGmCfGmAfGmCfAmUfCmCfGmGfUmAdT*dT; siRNA) [compound 2280] | 0.871 ± 0.147 | 0.911 ± 0.086
2371 (sense fUmUfAmAfGmGfUmUfUmUfGmUfUmGfCmUfAmGfAdT; antisense dTfCmUfAmGfCmAfAmCfAmAfAmAfCmCfUmUfAmAdT*dT; siRNA) [compound 2371] | 0.193 ± 0.030 | 0.166 ± 0.037
2323 (sense fAmCfAmAfGmCfCmAfCmUfGmAfGmCfGmCfAmAfAdT; antisense dTfUmUfGmCfGmCfUmCfAmGfUmGfGmCfUmUfGmUdT*dT; siRNA) [compound 2323] | 0.631 ± 0.085 | 0.664 ± 0.166
2377 (sense fUmGfGmUfCmUfUmUfCmAfCmAfCmGfGmCfAmCfAdT; antisense dTfGmUfGmCfCmGfUmGfUmGfAmAfAmGfAmCfCmAdT*dT; siRNA) [compound 2377] | 0.900 ± 0.189 | 0.958 ± 0.189
2370 (sense fCmGfGmGfGmAfAmGfUmGfCmUfCmUfAmAfCmUfAdT; antisense dTfAmGfUmUfAmGfAmGfCmAfCmUfUmCfCmCfCmGdT*dT; siRNA) [compound 2370] | 0.498 ± 0.128 | 0.294 ± 0.026
2378 (sense fAmAfCmUfAmCfCmAfUmGfAmGfAmUfGmGfUmUfAdT; antisense dTfAmAfCmCfAmUfCmUfCmAfUmGfGmUfAmGfUmUdT*dT; siRNA) [compound 2378] | 0.994 ± 0.246 | 0.734 ± 0.170
2235 (sense fGmAfCmUfCmCfCmAfGmCfAmUfUmCfGmAfGmCfAdT; antisense dTfGmCfUmCfGmAfAmUfGmCfUmGfGmGfAmGfUmCdT*dT; siRNA) [compound 2235] | 0.743 ± 0.129 | 0.857 ± 0.090
2399 (sense fCmCfUmAfCmCfUmGfUmCfAmAfCmGfUmAfAmCfAdT; antisense dTfGmUfUmAfCmGfUmUfGmAfCmAfGmGfUmAfGmGdT*dT; siRNA) [compound 2399] | 0.784 ± 0.071 | 0.418 ± 0.081
2372 (sense fGmUfUmGfCmUfAmGfCmCfCmUfUmCfAmAfGmUfAdT; antisense dTfAmCfUmUfGmAfAmGfGmGfCmUfAmGfCmAfAmCdT*dT; siRNA) [compound 2372] | 0.831 ± 0.103 | 0.514 ± 0.044
2335 (sense fAmGfUmAfCmAfCmAfAmUfUmGfUmUfUmUfAmCfAdT; antisense dTfGmUfAmAfAmAfCmAfAmUfUmGfUmGfUmAfCmUdT*dT; siRNA) [compound 2335] | 0.311 ± 0.032 | 0.104 ± 0.013
2380 (sense fCmCfAmAfGmCfUmCfAmCfGmAfCmCfUmUfGmGfAdT; antisense dTfCmCfAmAfGmGfUmCfGmUfGmAfGmCfUmUfGmGdT*dT; siRNA) [compound 2380] | 1.128 ± 0.285 | 1.722 ± 0.101
2321 (sense fUmUfGmAfUmGfCmCfGmGfAmCfAmAfGmCfCmAfAdT; antisense dTfUmGfGmCfUmUfGmUfCmCfGmGfCmAfUmCfAmAdT*dT; siRNA) [compound 2321] | 0.561 ± 0.043 | 0.665 ± 0.033
2314 (sense fAmAfAmGfGmGfUmUfUmUfGmGfGmGfCmUfCmGfAdT; antisense dTfCmGfAmGfCmCfCmCfAmAfAmAfCmCfCmUfUmUdT*dT; siRNA) [compound 2314] | 0.692 ± 0.141 | 0.920 ± 0.150
2368 (sense fCmAfCmGfUmUfGmUfGmGfGmGfUmCfGmGfGmGfAdT; antisense dTfCmCfCmCfGmAfCmCfCmCfAmCfAmAfCmGfUmGdT*dT; siRNA) [compound 2368] | 1.036 ± 0.063 | 1.140 ± 0.221
2340 (sense fGmUfCmAfAmCfUmCfCmAfAmCfGmUfAmUfGmUfAdT; antisense dTfAmCfAmUfAmCfGmUfUmGfGmAfGmUfUmGfAmCdT*dT; siRNA) [compound 2340] | 0.920 ± 0.114 | 0.444 ± 0.039
2318 (sense fGmGfUmAfGmCfCmCfUmCfUmCfCmAfAmCfAmAfAdT; antisense dTfUmUfGmUfUmGfGmAfGmAfGmGfGmCfUmAfCmCdT*dT; siRNA) [compound 2318] | 0.885 ± 0.370 | 0.780 ± 0.103
2400 (sense fCmUfAmCfCmUfGmUfCmAfAmCfGmUfAmAfCmGfAdT; antisense dTfCmGfUmUfAmCfGmUfUmGfAmCfAmGfGmUfAmGdT*dT; siRNA) [compound 2400] | 0.478 ± 0.028 | 0.165 ± 0.020
2355 (sense fCmAfUmAfGmGfUmGfUmGfAmCfAmAfUmCfCmGfAdT; antisense dTfCmGfGmAfUmUfGmUfCmAfCmAfCmCfUmAfUmGdT*dT; siRNA) [compound 2355] | 0.457 ± 0.066 | 0.248 ± 0.063
2327 (sense fCmCfUmGfUmCfGmUfCmAfGmCfCmCfAmCfAmAfAdT; antisense dTfUmUfGmUfGmGfGmCfUmGfAmCfGmAfCmAfGmGdT*dT; siRNA) [compound 2327] | 1.339 ± 0.179 | 1.073 ± 0.089
2366 (sense fGmGfCmAfCmGfUmUfGmUfGmGfGmGfUmCfGmGfAdT; antisense dTfCmCfGmAfCmCfCmCfAmCfAmAfCmGfUmGfCmCdT*dT; siRNA) [compound 2366] | 0.879 ± 0.223 | 0.695 ± 0.115
2394 (sense fAmGfCmUfUmCfAmUfAmUfUmAfAmCfCmCfUmAfAdT; antisense dTfUmAfGmGfGmUfUmAfAmUfAmUfGmAfAmGfCmUdT*dT; siRNA) [compound 2394] | 0.533 ± 0.076 | 0.254 ± 0.026
2382 (sense fGmGfGmUfAmAfGmAfGmGfGmAfCmGfAmCfAmCfAdT; antisense dTfGmUfGmUfCmGfUmCfCmCfUmCfUmUfAmCfCmCdT*dT; siRNA) [compound 2382] | 1.070 ± 0.064 | 1.151 ± 0.365
2359 (sense fCmCfGmAfGmCfAmGfUmGfGmAfGmUfCmAfUmUfAdT; antisense dTfAmAfUmGfAmCfUmCfCmAfCmUfGmCfUmCfGmGdT*dT; siRNA) [compound 2359] | 0.576 ± 0.208 | 0.354 ± 0.022
2240 (sense fCmGfUmCfUmGfAmAfCmGfUmCfUmCfAmAfAmGfAdT; antisense dTfCmUfUmUfGmAfGmAfCmGfUmUfCmAfGmAfCmGdT*dT; siRNA) [compound 2240] | 0.841 ± 0.048 | 0.845 ± 0.052
